# PMC10218704, “A Novel Blood–Brain Barrier-Penetrating and Vascular-Targeting Chimeric Peptide Inhibits Glioma Angiogenesis” (International Journal of Molecular Sciences, 2023)
# Ends that are not written are not given here.
# Key:
# PLC-γ = assay: Western blot, phosphorylation of PLC-γ; assay type: cell-based, human; settings: 320 μmol/L, 90 min, VEGF-A165 30 ng/mL, HUVECs, vs control, AT7, TAT, n = 3
# Method: (§1) For Western blotting analysis, HUVECs were seeded into 6-well culture plates at 3 × 10^5 cells/well and incubated overnight. […] Two control groups (F-12K medium in the absence or presence of VEGF-A165) were set. The cells were washed with cold PBS and lysed with lysis buffer (protease and phosphatase inhibitors) on the ice for 30 min, and then centrifuged at 4 °C for 15 min at 14,000 r/min. The supernatant was collected, and its total protein concentration was determined by the BCA protein assay kit. Equal amounts of proteins were separated by 10% SDS-PAGE gels and transferred to polyvinylidene difluoride (PVDF) membranes. After blocking with 5% non-fat milk for 1 h, the membranes were incubated with specific antibodies at 4 °C overnight. Then, the membranes were washed with TBST (Tris-Buffered Saline with 0.1% Tween 20) and incubated with horseradish peroxidase (HRP)-conjugated secondary antibody for 1 h at room temperature. The proteins on the membranes were visualized with enhanced chemiluminescence agents.
# HUVECs [1] = assay: Hoechst 33,258 staining (apoptosis); assay type: cell-based, human; settings: 320 μmol/L; 24 h
# Method: HUVECs were seeded into 6-well culture plates (3 × 10^5 cells/well). […] After discarding the supernatant and washing with cold PBS, the cells were fixed in 4% paraformaldehyde and stained with Hoechst 33,258 for 10 min. Then, the cells were washed with cold PBS and observed using an inverted fluorescence microscope.
# [2] = test system: glioma blood vessels (CD31); assay: CD31 immunohistochemical staining of glioma tissue (blood vessel density); assay type: in vivo, nude mice; settings: 20 mg/kg/day i.v., 11 days; tissue at day 15; n = 3
# Method: The orthotopic U87-mCherry-luc glioma-bearing nude mice were randomly assigned to 6 groups (n = 5) according to the bioluminescence intensity of glioma measured on day 4. […] The bioluminescence intensity was measured on days 4, 7, 11, and 14, respectively. Nude mice were weighed daily. On day 15, the mice were sacrificed, and the glioma-bearing brains were harvested. The brain tissues were fixed with 4.0% paraformaldehyde, embedded in paraffin, and cut into slices. The TUNEL staining and CD31 immunohistochemical staining were conducted according to standard histological procedures.
# [3] = compared with TAT or AT7 alone; cited from earlier work
# Description: Intracranial delivery of therapeutic agents is primarily hindered by the BBB [24]. The intercellular tight junction caused by the BBB restricts the passive diffusion of almost all large-molecule and more than 98% of small-molecule drugs from peripheral blood circulation to the brain tissue. TAT ([…]), one of the most promising cationic cell-penetrating peptides (CPPs), has been widely applied in drug delivery due to its high efficiency to facilitate the tissue penetration and internalization of cargos and break through a variety of biological barriers, such as cell membrane ...
# VEGFR-2 = assay type: binding, human; settings: peptide 256 and 1000 nmol/L; VEGF-A165 0.5-8 nmol/L; CM5 chip; HBS-EP
# Method: To determine the effect of TAT-AT7 in competition with VEGF-A165 binding to VEGFR-2 or NRP-1, the SPR assay was conducted. The whole operation was conducted on a Biacore S200 instrument. The recombinant VEGFR-2 or NRP-1 proteins were firstly immobilized on a CM5 chip by an amine-coupling reaction. VEGF-A165 ligands with gradient concentrations in the absence or presence of different peptides were then flowed over the CM5 chip. The binding of VEGF-A165 ligands to the immobilized recombinant VEGFR-2 or NRP-1 proteins led to an increase of the refractive index on the surface of the chip, which could be converted into the fluctuation of electrical signals in the response (RU). As the concentration of VEGF-A165 was higher, the response value was also higher. However, with the addition of different peptides, the response value decreased to different degrees (Figure 3A and Figure 4A).
# (TAT), ATWLPPR (AT7), and […] (TAT-AT7) were synthesized from China Peptides Co., Ltd. (Shanghai, China). The Hoechst 33,258 staining kit, Annexin V-FITC/PI apoptosis detection kit, and BCA protein assay kit were obtained from Beyotime Biotechnology (Nantong, China). The total protein extraction kit was from BestBio (Shanghai, China). The CM5 sensor chip was obtained from GE Healthcare Life Sciences (Uppsala, Sweden). Purified recombinant human VEGFR-2 and NRP-1 receptor proteins were purchased from R&D Systems (Minneapolis, MN, USA). Recombinant human endothelial growth factor-A165 (VEGF-A165) was obtained from PeproTech (Rocky Hill, NJ, USA). Anti-ERK1/2, anti-p-ERK1/2, anti-p-VEGFR-2, anti-AKT, anti-p-AKT, anti-p-SRC, anti-p-FAK, anti-p38 MAPK, anti-p-p38 MAPK, anti-p-PLC-γ, and anti-GAPDH antibodies were purchased from Cell Signaling Technology (Danvers, MA, USA). Anti-VEGFR-2, anti-FAK, and anti-SRC were purchased from Proteintech Group, Inc (Wuhan, China). F-12K medium, heparin, and endothelial cell growth supplement (ECGS) were from Macgene (Beijing, China). DMEM medium and fetal bovine serum (FBS) were obtained from Gibco®, Life Technologies (Carlsbad, CA, USA). […]
# HUVECs [4] = assay: Tube formation assay on Matrigel; assay type: cell-based, human; settings: 160 μmol/L, VEGF-A165 30 ng/mL, 6 h, n = 3
# Method: Matrigel was added to 96-well plates with 60 min of incubation at 37 °C for solidification. […] The tubular structures were observed under an inverted microscope and the total branching lengths were calculated by the ImageJ V 1.8.0 software.
# SRC = assay: Western blot, phosphorylation of SRC; assay type: cell-based, human; settings: 320 μmol/L, 90 min, VEGF-A165 30 ng/mL, HUVECs, vs control, AT7, TAT, n = 3
# Method: as §1
Compound,phosphorylation level of PLC-γ (PLC-γ),"number of apoptotic cells (Hoechst 33,258) (HUVECs [1])",blood vessel density (CD31) [2],BBB-penetration capability [3],effect on VEGF-A165 and VEGFR-2 binding (RU) (VEGFR-2),formation of tubular structures (HUVECs [4]),"total branch length of the tubular structure (HUVECs [4]; vs AT7, TAT, and TAT+AT7 groups)",phosphorylation level of SRC (SRC)
CC(C)C[C@H](NC(=O)[C@H](Cc1c[nH]c2ccccc12)NC(=O)[C@@H](NC(=O)[C@H](C)NC(=O)[C@H](CS)NC(=O)[C@H](CCCNC(=N)N)NC(=O)[C@H](CCCNC(=N)N)NC(=O)[C@H](CCCNC(=N)N)NC(=O)[C@H](CCC(N)=O)NC(=O)[C@H](CCCNC(=N)N)NC(=O)[C@H](CCCNC(=N)N)NC(=O)[C@H](CCCCN)NC(=O)[C@H](CCCCN)NC(=O)[C@@H](N)CCCNC(=N)N)[C@@H](C)O)C(=O)N1CCC[C@H]1C(=O)N1CCC[C@H]1C(=O)N[C@@H](CCCNC(=N)N)C(=O)O [TAT-AT7],significantly inhibited the phosphorylation level,"significantly increased compared to the control, AT7, TAT, and TAT+AT7 groups",significantly lower than that in the other groups,stronger BBB-penetration capabilities,significantly reduced the RU value,significantly inhibit the formation of tubular structures in HUVECs,significantly reduced,significantly inhibited the phosphorylation level
"ATWLPPR [AT7, ATWLPPR]",,,,,less inhibitory effects on VEGF-A165 and VEGFR-2 binding than TAT-AT7,,,
